Here are results for 5 molecules from patent publication US20110256559A1, “Method for Detecting Soluble Amyloid Precursor Protein (APP) Alpha and/or Soluble APP Beta” (INSERM (Institut National de la Sante et de la Recherche …, priority 2008, published 2011).

Entries after “also recorded” stand apart in the source; their conditions may differ.

The subject of assay [1] is sAPPα. The assay is described as follows: sAPPα HTRF assay in SH-SY5Y neuroblastoma cells conditioned medium. The class given is cell-based, human. Particulars: for effect on PdBu-induced increase of sAPPα secretion: PKC activated by PdBu (FIG. 7). As to the method:
(§1) Four types of biological samples were investigated using the following procedure: human CSF, human blood serum, culture medium of neuroblastoma SH-SY5Y cell line treated with different drugs (for instance the PKC activator PdBu which stimulate the ADAM 17 alpha secretase activity), or conditioned culture medium from primary mouse cortical neurons.
(§2) All samples and calibrator were treated with 10 mM DTT on ice, during 30 min. In a 384-well low volume (20 μl) white plate, reagents were distributed in the following order: • 5 μl 150 mM phosphate buffer pH 7.0, 0.2% BSA. • 5 μl sample or calibrator, treated with DTT and diluted. • 5 μl MAB348 antibody, cryptate conjugate, diluted 1/250 with 50 mM phosphate buffer pH 7.0, 0.4M KF. • 5 μl 2B3 antibody, D2 conjugate, diluted 1/250 with 50 mM phosphate buffer pH 7.0, 0.4M KF.
The plate covered with a plate sealer was centrifuged (1000 g 1 min) and incubated overnight, at room temperature.
The plate sealer was removed, and the plate read on a compatible HTRF reader (Envision, Perkin Elmer), at […].
Results are calculated from 665 nm/620 nm ratio and expressed in delta F: […]
Delta F is proportional to the sAPPα concentration; Delta F obtained for samples can be reported on the calibration curve to deduce respective sAPPα concentration.
Different samples were submitted to the sAPPα HTRF assay with or without DTT treatment.
Numerous studies have shown that the sAPPα secretion is regulated by some intracellular signalisation pathway involving PKC and that the α-secretase responsible for this secretion is a disintegrin-metalloproteinase (ADAM 17).

Assay [2] concerns sAPPα. Put plainly: sAPPα HTRF assay in primary cortical neurons conditioned medium. The class given is cell-based, mouse. Particulars: primary neurons from transgenic mice expressing wild type human APP (FIG. 8). The method, then:
as §1, §2
Validation of the sAPPα HTRF Assay in Primary Cortical Neurons Conditioned Medium. (FIG. 8)
In general terms: In TR-FRET formats the signal depends on donor and acceptor labels being close together.

`CN(C)CCCn1cc(C2=C(c3c[nH]c4ccccc34)C(=O)NC2=O)c2ccccc21` [GF 109203]: the “effect on PdBu-induced increase of sAPPα secretion” value in the assay with sAPPα [1] (SH-SY5Y conditioned medium) is “abolished”.
On to `CCCC(=O)O[C@@H]1[C@@H](C)[C@@]2(O)[C@@H](C=C(CO)C[C@]3(O)C(=O)C(C)=C[C@@H]23)[C@@H]2C(C)(C)[C@]12OC(=O)CCC` [PdBu], for which the “effect on amount of sAPPα / sAPPα secretion” value with sAPPα [1] (SH-SY5Y conditioned medium, samples pre-treated with DTT (FIG. 7)) was “activates the production of sAPPα; also recorded: increased”. Further, the “sAPP alpha, Without DTT” value in the assay with sAPPα [1] (conditioned medium of SH-SY5Y neuroblastoma cell line, no DTT pre-treatment, n=8) was determined as 3.4 ± 0.4 ng/mL. In addition, the “sAPP alpha, With DTT” value with sAPPα [1] (conditioned medium of SH-SY5Y neuroblastoma cell line, sample pre-treated with 10 mM DTT, n=8) was found to be 59.1 ± 2.8 ng/mL. Besides, the “sAPPα Mean, inter assay reproducibility” value in the assay on sAPPα [1] (conditioned medium, inter assay, 16 samples) is 61.4 ng/mL. Further, in the assay on sAPPα [1] (conditioned medium, intra assay, 8 samples), the “sAPPα Mean, intra assay reproducibility” value was 59.1 ng/mL.
On to `CC(C)C[C@H](CC(=O)NO)C(=O)N[C@@H](Cc1ccc2ccccc2c1)C(=O)N[C@@H](C)C(N)=O` [TAPI 0], for which the “effect on PdBu-induced increase of sAPPα secretion” value with sAPPα [1] (SH-SY5Y conditioned medium) is given as “abolished”.
In the case of `O=C(O[C@@H]1Cc2c(O)cc(O)cc2O[C@@H]1c1cc(O)c(O)c(O)c1)c1cc(O)c(O)c(O)c1` [EGCG], the “effect on sAPP alpha in the medium” value with sAPPα [2] was “increase of sAPP alpha”.
Turning to PACAP 1-27, the “effect on sAPP alpha in the medium” value with sAPPα [2] was “increase of sAPP alpha”.
